Where two headings read alike, the source gives them in different places.
Tests used:
[1] = target: HCV NS3/4A protease genotype 1b (Hepatitis C virus genotype 1b, UniProt P26663); experiment: HCV NS3/4A protease time-resolved fluorescence (TRF) assay, Ki against genotype 1b; type: biochemical; settings: IC50 [gt-1b] (nM), NS3/4A genotype 1b, enzyme 0.2 nM
Procedure, shortened: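 Enzyme 0.2 nM 1b / 0.4 nM A156T / 0.025 nM 3a; 30 min preinc. w/ cpd; 25 nM TRF peptide; 2.5 h RT; ex 340/em 615 time-delayed; 4-param IC50 → Ki = IC50/(1+[S]/KM).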

HCV genotype 1b replicon = experiment: HCV replicon assay, genotype 1b replicon EC50; type: cell-based, Hepatitis C virus; settings: Hepatitis C virus, genotype 1b replicon, read-out: EC50 [gt-1b]
Procedure, shortened: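 Assay format: compound titration on stable replicon cells, no G418 during treatment, 24 to 48 hours. Lysates were assayed for replicon RNA (hybridization/protection or TaqMan) or luciferase; EC50 fitted to four parameters against DMSO.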

| Structure (SMILES) | IC50 ([1]; HCOOH salt) [nM] | EC50 (HCV genotype 1b replicon; HCOOH salt) [nM] | IC50 [1] [nM] | EC50 (HCV genotype 1b replicon) [nM] |
| --- | --- | --- | --- | --- |
| COc1ccc2c3c(c(C4CC4)nc2c1)O[C@]1(CC3)C[C@H]2C(=O)N[C@]3(C(=O)NS(=O)(=O)C4(C)CC4)C[C@H]3/C=C\CCCCC[C@H](NC(=O)OCCF)C(=O)N2C1 [Example 277, 2-fluoroethyl [(2R,6S,12Z,13aS,14aR,16aS)-5′-cyclopropyl-8′-methoxy-14a-{[(1-methylcyclopropyl)sulfonyl]carbamoyl}-5,16-dioxo-1,1′,2′,5,6,7,8,9,10,11,13a,14,14a,15,16,16a-hexadecahydrospiro[cyclopropa[e]pyrrolo[1,2-a][1,4]diazacyclopentadecine-2,3′-pyrano[2,3-c]quinolin]-6-yl]carbamate] | 1.05 | 81.6 | – | – |
| COc1ccc2c3c(c(C4CC4)nc2c1)O[C@]1(CC3)C[C@H]2C(=O)N[C@]3(C(=O)NS(=O)(=O)C4(C)CC4)C[C@H]3/C=C\CCCCC[C@H](NC(=O)OC3CCOC3)C(=O)N2C1 (stereo partly drawn) [Example 278, tetrahydrofuran-3-yl [(2R,6S,12Z,13aS,14aR,16aS)-5′-cyclopropyl-8′-methoxy-14a-{[(1-methylcyclopropyl)sulfonyl]carbamoyl}-5,16-dioxo-1,1′,2′,5,6,7,8,9,10,11,13a,14,14a,15,16,16a-hexadecahydrospiro[cyclopropa[e]pyrrolo[1,2-a][1,4]diazacyclopentadecine-2,3′-pyrano[2,3-c]quinolin]-6-yl]carbamate] | 0.027 | 12.4 | – | – |
| Cc1nc2ccc(OC(F)F)cc2c2c1O[C@]1(CC2)C[C@H]2C(=O)N[C@]3(C(=O)NS(=O)(=O)C4(C)CC4)C[C@H]3/C=C\CCCCC[C@H](NC(=O)OCC(C)(C)C)C(=O)N2C1 [Example 280, 2,2-dimethylpropyl [(2R,6S,12Z,13aS,14aR,16aS)-9′-(difluoromethoxy)-5′-methyl-14a-{[(1-methylcyclopropyl)sulfonyl]carbamoyl}-5,16-dioxo-1,1′,2′,5,6,7,8,9,10,11,13a,14,14a,15,16,16a-hexadecahydrospiro[cyclopropa[e]pyrrolo[1,2-a][1,4]diazacyclopentadecine-2,3′-pyrano[2,3-c]quinolin]-6-yl]carbamate] | – | – | 0.005 | 2.84 |
| COc1ccc2nc(C(C)C)c3c(c2c1)C(F)(F)C[C@]1(C[C@H]2C(=O)N[C@]4(C(=O)NS(=O)(=O)C5(C)CC5)C[C@H]4/C=C\CCCCC[C@H](NC(=O)OC(C)(C)CCS(=O)(=O)C(C)C)C(=O)N2C1)O3 [Example 281, 2-methyl-4-(propan-2-ylsulfonyl)butan-2-yl [(2S,6S,12Z,13aS,14aR,16aS)-1′,1′-difluoro-9′-methoxy-14a-{[(1-methylcyclopropyl)sulfonyl]carbamoyl}-5,16-dioxo-5′-(propan-2-yl)-1,1′,2′,5,6,7,8,9,10,11,13a,14,14a,15,16,16a-hexadecahydrospiro[cyclopropa[e]pyrrolo[1,2-a][1,4]diazacyclopentadecine-2,3′-pyrano[2,3-c]quinolin]-6-yl]carbamate] | – | – | 0.06 | 10.8 |
| Cc1nc2ccccc2c2c1O[C@]1(CC2)C[C@H]2C(=O)N[C@]3(C(=O)NS(=O)(=O)C4(C)CC4)C[C@H]3/C=C\CCCCC[C@H](NC(=O)NC(C)C)C(=O)N2C1 [Example 282, (2R,6S,12Z,13aS,14aR,16aS)-5′-methyl-N-[(1-methylcyclopropyl)sulfonyl]-5,16-dioxo-6-[(propan-2-ylcarbamoyl)amino]-1,1′,2′,6,7,8,9,10,11,13a,14,15,16,16a-tetradecahydrospiro[cyclopropa[e]pyrrolo[1,2-a][1,4]diazacyclopentadecine-2,3′-pyrano[2,3-c]quinoline]-14a(5H)-carboxamide] | 0.018 | 43.6 | – | – |
| Cc1nc2ccccc2c2c1O[C@]1(CC2)C[C@H]2C(=O)N[C@]3(C(=O)NS(=O)(=O)C4(C)CC4)C[C@H]3/C=C\CCCCC[C@H](NC(=O)NC3CCCC3)C(=O)N2C1 [Example 283, (2R,6S,12Z,13aS,14aR,16aS)-6-[(cyclopentylcarbamoyl)amino]-5′-methyl-N-[(1-methylcyclopropyl)sulfonyl]-5,16-dioxo-1,1′,2′,6,7,8,9,10,11,13a,14,15,16,16a-tetradecahydrospiro[cyclopropa[e]pyrrolo[1,2-a][1,4]diazacyclopentadecine-2,3′-pyrano[2,3-c]quinoline]-14a(5H)-carboxamide] | 0.012 | 19 | – | – |
| Cc1nc2ccccc2c2c1O[C@]1(CC2)C[C@H]2C(=O)N[C@]3(C(=O)NS(=O)(=O)C4(C)CC4)C[C@H]3/C=C\CCCCC[C@H](NC(=O)NCc3ccccc3)C(=O)N2C1 [Example 284, (2R,6S,12Z,13aS,14aR,16aS)-6-[(benzylcarbamoyl)amino]-5′-methyl-N-[(1-methylcyclopropyl)sulfonyl]-5,16-dioxo-1,1′,2′,6,7,8,9,10,11,13a,14,15,16,16a-tetradecahydrospiro[cyclopropa[e]pyrrolo[1,2-a][1,4]diazacyclopentadecine-2,3′-pyrano[2,3-c]quinoline]-14a(5H)-carboxamide] | 0.038 | 58.7 | – | – |
| Cc1nc2ccccc2c2c1O[C@]1(CC2)C[C@H]2C(=O)N[C@]3(C(=O)NS(=O)(=O)C4(C)CC4)C[C@H]3/C=C\CCCCC[C@H](NC(=O)NC3CCCCC3)C(=O)N2C1 [Example 285, (2R,6S,12Z,13aS,14aR,16aS)-6-[(cyclohexylcarbamoyl)amino]-5′-methyl-N-[(1-methylcyclopropyl)sulfonyl]-5,16-dioxo-1,1′,2′,6,7,8,9,10,11,13a,14,15,16,16a-tetradecahydrospiro[cyclopropa[e]pyrrolo[1,2-a][1,4]diazacyclopentadecine-2,3′-pyrano[2,3-c]quinoline]-14a(5H)-carboxamide] | 0.002 | 10.3 | – | – |
| CCNC(=O)N[C@H]1CCCCC/C=C\[C@@H]2C[C@@]2(C(=O)NS(=O)(=O)C2(C)CC2)NC(=O)[C@@H]2C[C@]3(CCc4c(c(C)nc5ccccc45)O3)CN2C1=O [Example 286, (2R,6S,12Z,13aS,14aR,16aS)-6-[(ethylcarbamoyl)amino]-5′-methyl-N-[(1-methylcyclopropyl)sulfonyl]-5,16-dioxo-1,1′,2′,6,7,8,9,10,11,13a,14,15,16,16a-tetradecahydrospiro[cyclopropa[e]pyrrolo[1,2-a][1,4]diazacyclopentadecine-2,3′-pyrano[2,3-c]quinoline]-14a(5H)-carboxamide] | – | – | 0.015 | 119 |
| CCCCNC(=O)N[C@H]1CCCCC/C=C\[C@@H]2C[C@@]2(C(=O)NS(=O)(=O)C2(C)CC2)NC(=O)[C@@H]2C[C@]3(CCc4c(c(C)nc5ccccc45)O3)CN2C1=O [Example 287, (2R,6S,12Z,13aS,14aR,16aS)-6-[(butylcarbamoyl)amino]-5′-methyl-N-[(1-methylcyclopropyl)sulfonyl]-5,16-dioxo-1,1′,2′,6,7,8,9,10,11,13a,14,15,16,16a-tetradecahydrospiro[cyclopropa[e]pyrrolo[1,2-a][1,4]diazacyclopentadecine-2,3′-pyrano[2,3-c]quinoline]-14a(5H)-carboxamide] | 0.013 | 23 | – | – |

Reference: patent US8987195B2 (priority 2012, dated 2015)
